This is an account of results in patent US8058243B2, “Method for treating a brain cancer with ifenprodil” (HSC Research and Development Limited Partnership, priority 2006, dated 2011).

The subject of the assay is murine neural precursor cells (neurosphere cultures). The assay can be described thus: HTS of LOPAC library against secondary neurosphere cultures, MTT proliferation assay at 3 μM, day 7 (z score, P value). It counts as cell-based, mouse. Background: Formazan colour is commonly taken as a measure of viable cells.
Where [1] appears, read: yes = significantly inhibited neurosphere proliferation (P<0.01) in the primary screen.
Where [2] appears, read: LOPAC primary screen, neurosphere MTT proliferation, 3 μM, day 7.
The mark [3] stands for this setting: yes/no: significantly inhibited neurosphere proliferation in primary screen.
Setting [4] is: yes/no: significantly inhibited neurosphere proliferation (P<0.01) in primary screen.
Setting [5] is: LOPAC library screen at 3 μM, secondary neurosphere cultures, MTT.
Where [6] appears, read: yes/no: significantly inhibited neurosphere proliferation (P<0.01) in the primary screen.
[7] abbreviates: LOPAC screen, neurosphere MTT proliferation, 3 μM, day 7.
Setting [8] is: LOPAC library screen at 3 μM, MTT, secondary neurosphere cultures, screened in singlets.
[9] abbreviates: LOPAC library screen, 3 μM, MTT, neurosphere cultures.
The mark [10] stands for this setting: LOPAC library screen, 3 μM, MTT, secondary neurosphere cultures, day 7.
Setting [11] is: primary LOPAC screen, 3 μM, MTT, neurosphere proliferation.

Where a name gives a salt, the structure may show the parent alone. Read-outs that look alike come from different tables or passages of the source.

Consider `N[C@@H](CCC(=O)N[C@@H](CSN=O)C(=O)NCC(=O)O)C(=O)O` [S-Nitrosoglutathione], for which, where the note is “168 h, 3 µM”, the “Z Score” value is listed as 0.6978 and the Z score is 0.698. The Activity result under setting [1] was “no”.
As for `C=CCN1C[C@H](C)N([C@H](c2ccc(C(=O)N(CC)CC)cc2)c2cccc(OC)c2)C[C@H]1C` [SNC80], the “Z Score” value is given as −0.4575. Besides, under setting [2], the Z score is on record as −0.457. The Activity result under setting [3] is listed as “no”.
Turning to `NC(Cc1cc(O)c(O)cc1O)C(=O)O` (racemic) [6-Hydroxy-DL-DOPA], the “Z Score” value stood at 1.204. Moreover, the Z score under setting [2] is 1.204. Further, the Activity result under setting [4] was “no”.
Turning to `CNC[C@H](O)c1ccc(O)c(O)c1.O=C(O)C(O)C(O)C(=O)O` [(−)-Epinephrine bitartrate], the “Z Score” value under setting [5] is reported as −0.5304. Also, the Z score under setting [2] is given as −0.530. Further, under setting [4], the Activity entry is “no”.
In the case of `Oc1cc(O)cc(/C=C/c2ccc(O)c(O)c2)c1` [Piceatannol], for the setting “168 h, 3 µM”, the “Z Score” value is 0.5958 and the Z score was determined as 0.596.
Consider `CC(=N)NCCC[C@H](N)C(=O)O.Cl` [L-N5-(1-Iminoethyl)ornithine hydrochloride], for which the “Z Score” value is given as −0.9339. Moreover, the Z score under setting [2] is recorded as −0.934. In addition, under setting [4], the Activity entry is on record as “no”.
For the compound `OC(CN1CCN(c2cccc(Cl)c2)CC1)C(c1ccccc1)c1ccccc1` (stereo not shown) [BRL 15572], the “Z Score” value amounted to 0.3117. This compound registered a Z score under setting [2] of 0.312. Besides, the Activity entry under setting [6] was “no”.
Consider `CC1CCN(CC[C@H]2CCCN2S(=O)(=O)c2cccc(O)c2)CC1.Cl` [SB 269970 hydrochloride], for which the “Z Score” value was −1.1. Besides, under setting [2], the Z score is given as −1.100. The Activity entry under setting [3] is “no”.
As for `CN1C2CCC1CC(NC(=O)c1nn(C)c3ccccc13)C2.O=C(O)/C=C\C(=O)O` (stereo not shown) [LY-278,584 maleate], the “Z Score” value is on record as −1.074. The Z score under setting [2] is on record as −1.074. The Activity entry under setting [1] is on record as “no”.
In the case of `O=c1c(O)c(-c2cc(O)c(O)c(O)c2)oc2cc(O)cc(O)c12` [Myricetin], the “Z Score” value is −0.9113. Further, the Z score under setting [2] was −0.911. In addition, the Activity entry under setting [1] is given as “no”.
As to `CC(COc1ccccc1)N(CCCl)Cc1ccccc1` (stereo not shown) [Phenoxybenzamine hydrochloride], the “Z Score” value was −1.512. Also, the Z score under setting [7] is reported as −1.512. For the same compound, the Activity entry under setting [4] is listed as “no”.
As to `CC(C)NCC(O)c1ccc(NS(C)(=O)=O)cc1.Cl` (racemic) [(±)-Sotalol hydrochloride], the Z score under setting [2] was −0.813. Also, the Activity entry under setting [3] is “no”.
In the case of `O=C(O)/C(=C/c1c(C(=O)O)[nH]c2cc(Cl)cc(Cl)c12)c1ccccc1` [MDL 105,519], the Activity result is given as “no”, the “Z Score” value was 2.565 and the Z score was found to be 2.565.
As to `CCn1c(=O)[nH]c2cc(Cl)c(Cl)cc21` [DCEBIO], the “Z Score” value was 0.8099. The compound also came in with a Z score under setting [7] of 0.810. Moreover, the Activity result under setting [4] was “no”.
In the case of `N#CC(C#N)=Cc1ccc(O)c(O)c1` [Tyrphostin 23], the “Z Score” value is listed as −0.8396. The Z score under setting [2] was −0.840. For the same compound, under setting [3], the Activity entry is on record as “no”.
For `CC(Cc1ccc(O)c(O)c1)C(C)Cc1ccc(O)c(O)c1` (stereo not shown), the “Z Score” value under setting [8] was found to be 2.63. Moreover, under setting [2], the Z score came to 2.630. For the same compound, the Activity entry under setting [1] was “no”.
As to `NNC(=O)c1ccc(O)cc1` [4-Hydroxybenzhydrazide], the “Z Score” value is −0.7888. In addition, the Z score under setting [2] is on record as −0.789. For the same compound, the Activity entry under setting [4] was “no”.
For the compound `COc1cc(C(O)C(=O)O)ccc1O` (stereo not shown) [(B1)-Vanillylmandelic acid], the “Z Score” value is −1.811.
For `CCN(CC)CCOC(=O)c1ccc(N)cc1` [Procaine hydrochloride], under setting [9], the “Z Score” value is 0.5501. The Z score under setting [2] was determined as 0.550. Moreover, the Activity result under setting [6] is “no”.
`Cn1cc(C(=O)OCC2CCN(CCNS(C)(=O)=O)CC2)c2ccccc21` [GR 113808]: the “Z Score” value is 0.992. Also, the Z score under setting [2] is 0.992. Under setting [6], the Activity result is recorded as “no”.
In the case of `C[C@]12CC[C@@H](O)C[C@@H]1CC[C@@H]1[C@@H]2CC[C@]2(C)[C@@H](O)CC[C@@H]12` [5alpha-Androstane-3alpha, 17beta-diol], the “Z Score” value was −0.3811.
Turning to `CC1=C(/C=C/C(C)=C/C=C/C(C)=C\C(=O)O)C(C)(C)CCC1` [13-cis-retinoic acid], the “Z Score” value under setting [10] was −1.469. Besides, the Z score under setting [2] was −1.469. Further, under setting [6], the Activity result was “no”.
For `N=C(N)NCCC[C@H](N)C(=O)O` [L-Arginine], the “Z Score” value is listed as 0.5592. Under setting [11], the Z score worked out at 0.559. Further, for the setting “yes/no: significantly inhibited neurosphere proliferation in the primary screen”, the Activity entry is listed as “no”.
For `CC(=O)OCC1=C(C(=O)O)N2C(=O)[C@@H](NC(=O)Cc3cccs3)[C@H]2SC1` [Cephalothin sodium], the “Z Score” value under setting [8] was determined as 2.264. The same compound showed a Z score under setting [2] of 2.264. The Activity result under setting [6] is reported as “no”.
`COc1ccccc1N1CCN(CC(O)COc2cccc3ccccc23)CC1` (stereo not shown) [Naftopidil dihydrochloride]: the “Z Score” value under setting [5] was −0.1172. In addition, the Z score under setting [2] is −0.117. For the same compound, the Activity entry under setting [3] is on record as “no”.
With `CCCN1CCC[C@@H]2Cc3nc(N)ncc3C[C@H]21.Cl.Cl` [Quinelorane dihydroechloride], the “Z Score” value is on record as −1.567.
Consider `Cl.NC(N)=NCCNS(=O)(=O)c1cccc2cnccc12` [HA-1004 hydrochloride], for which the “Z Score” value was 0.3161. In addition, under setting [2], the Z score was 0.316. The Activity result under setting [4] is “no”.
Take `CN1CCN(c2ccc3ccccc3n2)CC1.O=C(O)/C=C\C(=O)O.O=C(O)/C=C\C(=O)O` [Quipazine, N-methyl-, dimaleate]: the “Z Score” value under setting [5] is on record as −0.3254. Moreover, the Z score under setting [2] is reported as −0.325. The Activity entry under setting [3] was “no”.
For the compound `CN(C)c1ccc(O)c2c1C[C@H]1C[C@H]3[C@H](N(C)C)C(O)=C(C(N)=O)C(=O)[C@@]3(O)C(O)=C1C2=O` [Minocycline hydrochloride], the “Z Score” value under setting [9] is 0.4419. For the same compound, under setting [2], the Z score is reported as 0.442.
Consider `CCC1(C2=NCCN2)Cc2ccccc2O1` (stereo not shown) [Efaroxan hydrochloride], for which the “Z Score” value under setting [10] is given as −2.338. The Z score under setting [2] is on record as −2.338. Also, under setting [6], the Activity result was “yes”.
On to `N[C@@H](CCCC(=O)O)C(=O)O` [L-2-aminoadipic acid], for which, where the note is “168 h, 3 µM”, the “Z Score” value is listed as −2.334 and the Z score was −2.334. Moreover, the Activity result under setting [6] is on record as “yes”.
With `Cl.NCCc1ccc(O)c(O)c1` [Dopamine hydrochloride], the Activity entry is “no”, the “Z Score” value amounted to 1.352 and the Z score is 1.352.
For the compound `Fc1ccc(C(c2ccc(F)cc2)N2CCN(C/C=C/c3ccccc3)CC2)cc1` [Flunarizine dihydrochloride], under setting [9], the “Z Score” value is 0.3954. The Z score under setting [2] is recorded as 0.395. Besides, the Activity entry under setting [4] is given as “no”.
With `CCN1CCc2nc(N)oc2CC1.Cl.Cl` [B-HT 933 dihydrochloride], the “Z Score” value was −1.28. Moreover, the Z score under setting [7] is reported as −1.280. For the same compound, under setting [4], the Activity result is reported as “no”.
Take `O=[N+]([O-])c1ccc(O[C@@H]2O[C@H](CO)[C@@H](O)[C@H](O)[C@H]2F)c([N+](=O)[O-])c1` [2,4-Dinitrophenyl 2-fluoro-2-deoxy-beta-D-glucopyranoside]: the “Z Score” value under setting [9] is recorded as 0.772. The Z score under setting [7] was 0.772. Besides, the Activity result under setting [4] is recorded as “no”.
Take `O=C(O)/C=C1\CCCc2ccccc2C1O` (stereo not shown) [NCS-382]: the “Z Score” value is −1.733. In addition, under setting [2], the Z score was −1.733. Further, the Activity entry under setting [1] is “no”.
For the compound `CC(=O)Nc1nnc(S(N)(=O)=O)s1` [Acetazolamide], the “Z Score” value under setting [9] is 1.111. Under setting [2], this compound returned a Z score of 1.111. Under setting [1], the Activity result is “no”.
`COc1ccc2c(c1OC)C(=O)OC2C1c2cc3c(cc2CCN1C)OCO3` (single isomer, unassigned; (+)) [(+)-Hydrastine]: the “Z Score” value is −0.8362. Also, under setting [2], the Z score is recorded as −0.836. Also, under setting [6], the Activity entry is listed as “no”.
Consider `Cl.c1ccc2nc(C3=NCCN3)ccc2c1` [BU224 hydrochloride], for which the “Z Score” value was 0.4045. In addition, under setting [7], the Z score was determined as 0.404. Under setting [4], the Activity entry is recorded as “no”.
`O=C(O)/C=C\C(=O)O.O=C(O)/C=C\C(=O)O.c1cc(CN2CCCCC2)cc(OCCCNc2nc3ccccc3s2)c1` [SKY 95282 dimaleate]: the “Z Score” value is given as 0.4241.
As to `CC(O)C(C)OC(=O)[C@@H]1C[C@@H]2c3cccc4c3c(cn4C(C)C)C[C@H]2N(C)C1.O=C(O)/C=C\C(=O)O` (stereo partly shown) [LY-53,857 maleate], the “Z Score” value is −0.3382. Also, the Z score under setting [2] is given as −0.338. Also, the Activity entry under setting [6] is on record as “no”.
With `CNc1ncnc2c1ncn2[C@H]1C[C@H](OP(=O)(O)O)[C@@H](COP(=O)(O)O)O1` [MRS 2179], the “Z Score” value is listed as −1.246. Further, under setting [2], the Z score is listed as −1.246. For the same compound, under setting [1], the Activity entry is listed as “no”.
Consider `O=C1C=CC(=O)C=C1` [p-Benzoquinone], for which the Activity result is reported as “no”. The “Z Score” value under setting [10] is reported as −1.571. Under setting [11], the Z score is −1.571.
For the compound `COC(=O)c1c(C)[nH]c(C)c1C(=O)c1ccccc1Cc1ccccc1` [FPL 64176], the “Z Score” value is recorded as −1.099. Also, under setting [2], the Z score was −1.099. Also, the Activity result under setting [4] is on record as “no”.
Regarding `CC(C)(C)c1ccc(S(=O)(=O)/C=C/C#N)cc1` [Bay 11-7085], the “Z Score” value came to 2.18. The same compound displayed a Z score under setting [7] of 2.180. Moreover, the Activity result under setting [4] is on record as “no”.
